Results taken from ChEMBL document CHEMBL4433245, “Discovery of GlyT2 Inhibitors Using Structure-Based Pharmacophore Screening and Selectivity Studies by FEP+ Calculations” (ACS Med Chem Lett, 2019).

Legend:
[1] = target: Sodium- and chloride-dependent glycine transporter 1 (Mus musculus) (UniProt P28571); experiment: Inhibition of mouse GlyT1 expressed in porcine aorta […] cells assessed as reduction in [3H]-Glycine uptake incubated for 10 mins at pH 7.4 by scintillation spectroscopy
[2] = target: Sodium- and chloride-dependent glycine transporter 1 (Mus musculus) (UniProt P28571); experiment: Inhibition of mouse GlyT1 expressed in porcine aorta […] cells assessed as reduction in [3H]-Glycine uptake incubated for 10 mins at pH 7.4 by scintillation spectroscopy relative to untreated control

Chain of Sodium- and chloride-dependent glycine transporter 1 (Mus musculus) (P28571 whole entry, looked up): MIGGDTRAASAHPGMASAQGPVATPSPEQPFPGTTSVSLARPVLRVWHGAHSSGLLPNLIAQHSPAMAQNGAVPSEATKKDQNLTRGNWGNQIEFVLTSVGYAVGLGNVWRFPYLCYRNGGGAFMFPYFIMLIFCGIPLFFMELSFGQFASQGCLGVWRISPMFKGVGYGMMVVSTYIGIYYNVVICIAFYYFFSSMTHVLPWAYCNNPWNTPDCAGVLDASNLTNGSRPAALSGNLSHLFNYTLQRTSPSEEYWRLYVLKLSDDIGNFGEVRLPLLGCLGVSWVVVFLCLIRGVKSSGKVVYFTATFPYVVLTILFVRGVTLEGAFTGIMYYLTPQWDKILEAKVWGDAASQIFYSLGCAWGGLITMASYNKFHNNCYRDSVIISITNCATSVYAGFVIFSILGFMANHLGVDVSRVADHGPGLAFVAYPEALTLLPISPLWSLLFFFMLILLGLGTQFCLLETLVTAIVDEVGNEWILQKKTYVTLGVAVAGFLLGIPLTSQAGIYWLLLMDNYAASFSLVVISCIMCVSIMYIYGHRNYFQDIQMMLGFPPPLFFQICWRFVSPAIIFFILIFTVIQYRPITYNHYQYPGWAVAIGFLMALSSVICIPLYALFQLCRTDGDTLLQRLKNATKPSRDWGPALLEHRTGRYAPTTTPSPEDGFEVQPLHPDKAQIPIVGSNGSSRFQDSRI

Row | Structure (SMILES) | IC50 [1] [µM] | inhibition [2] [%]
1 | O=C(O)CCCCSc1ncnc2[nH]c(=O)[nH]c12 | > 200 | 
2 | O=C(O)CCSc1[nH]c(=O)nc2[nH]c(=O)[nH]c12 | > 200 | 
3 | O=c1[nH]c2c(c(=O)[nH]1)CCN(Cc1ccccc1)C2 | > 200 | 
4 | CN(CC[C@@H](Oc1ccc(-c2ccccc2)cc1)c1ccc(F)cc1)CC(=O)O |  | 80
